Results as given in paper PMC3495945, “Org 214007-0: A Novel Non-Steroidal Selective Glucocorticoid Receptor Modulator with Full Anti-Inflammatory Properties and Improved Therapeutic Index” (PLoS ONE, 2012).

Tests used:
[1] = target: T1, recombinant human glucocorticoid receptor (GR) (Homo sapiens, UniProt P04150); assay: Glucocorticoid receptor fluorescence polarisation competitor binding assay; conditions: fluorescence polarization competitor binding; mean (±SD); read-out: Ki, competitive binding
T1 construct: purchased Panvera P2816
T1 sequence (P04150 whole entry): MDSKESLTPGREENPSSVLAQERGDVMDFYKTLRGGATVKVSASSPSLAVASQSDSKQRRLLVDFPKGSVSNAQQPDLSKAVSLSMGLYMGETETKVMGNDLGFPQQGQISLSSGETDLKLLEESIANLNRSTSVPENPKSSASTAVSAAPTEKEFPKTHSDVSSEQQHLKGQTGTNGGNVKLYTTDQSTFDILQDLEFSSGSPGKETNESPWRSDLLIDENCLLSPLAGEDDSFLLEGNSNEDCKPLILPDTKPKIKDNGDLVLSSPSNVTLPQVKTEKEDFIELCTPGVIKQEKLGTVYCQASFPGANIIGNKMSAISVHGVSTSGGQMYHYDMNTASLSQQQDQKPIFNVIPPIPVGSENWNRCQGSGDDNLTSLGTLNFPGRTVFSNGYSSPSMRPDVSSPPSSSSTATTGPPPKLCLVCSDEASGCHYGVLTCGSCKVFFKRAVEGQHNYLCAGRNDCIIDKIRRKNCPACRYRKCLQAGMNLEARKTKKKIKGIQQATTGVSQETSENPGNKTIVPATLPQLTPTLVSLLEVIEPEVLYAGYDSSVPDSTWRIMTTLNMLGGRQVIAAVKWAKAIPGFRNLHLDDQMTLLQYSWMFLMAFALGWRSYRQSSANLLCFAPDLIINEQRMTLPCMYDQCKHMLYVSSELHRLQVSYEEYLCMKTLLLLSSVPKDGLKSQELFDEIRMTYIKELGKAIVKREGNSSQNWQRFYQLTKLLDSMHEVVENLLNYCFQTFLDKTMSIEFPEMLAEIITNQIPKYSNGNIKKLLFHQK
Text: (for more detailed information see Supportive Information) (SI text).

[2] = target: T2, human androgen receptor (AR) (Homo sapiens, UniProt P10275); assay: CHO steroid receptor reporter assay, AR / MMTV-Luc; assay type: cell-based
T2 construct: expressed in transfected cells; host or cells: CHO K1
T2 sequence (P10275 1-920): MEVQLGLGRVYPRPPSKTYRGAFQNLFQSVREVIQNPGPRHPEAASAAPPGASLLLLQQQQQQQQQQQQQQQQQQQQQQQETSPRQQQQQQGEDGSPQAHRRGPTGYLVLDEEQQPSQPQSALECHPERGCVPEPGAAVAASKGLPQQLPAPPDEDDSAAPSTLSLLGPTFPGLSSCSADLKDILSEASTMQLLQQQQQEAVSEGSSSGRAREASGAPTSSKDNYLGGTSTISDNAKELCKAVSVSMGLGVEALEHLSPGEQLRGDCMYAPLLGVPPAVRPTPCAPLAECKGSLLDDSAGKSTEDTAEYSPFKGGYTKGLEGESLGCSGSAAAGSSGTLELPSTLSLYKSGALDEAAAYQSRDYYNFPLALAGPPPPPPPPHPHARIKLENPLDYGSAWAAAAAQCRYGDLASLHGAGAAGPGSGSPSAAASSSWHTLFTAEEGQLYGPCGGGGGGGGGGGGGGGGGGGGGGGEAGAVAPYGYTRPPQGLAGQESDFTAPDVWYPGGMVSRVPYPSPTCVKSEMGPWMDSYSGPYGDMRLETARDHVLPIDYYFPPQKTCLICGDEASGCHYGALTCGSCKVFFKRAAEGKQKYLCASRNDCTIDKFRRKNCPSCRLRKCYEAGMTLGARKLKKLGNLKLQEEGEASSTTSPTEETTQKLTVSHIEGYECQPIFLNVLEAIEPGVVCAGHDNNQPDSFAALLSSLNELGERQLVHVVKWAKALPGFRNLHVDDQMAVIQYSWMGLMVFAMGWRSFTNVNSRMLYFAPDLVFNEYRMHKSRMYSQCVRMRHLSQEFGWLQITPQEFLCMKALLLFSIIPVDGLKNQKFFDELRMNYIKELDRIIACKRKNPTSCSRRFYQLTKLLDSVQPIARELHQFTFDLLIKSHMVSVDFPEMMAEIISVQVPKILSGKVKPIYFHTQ
Text: (§1) For monitoring both human steroid receptor agonistic as well as antagonistic activity of compounds, Chinese hamster ovary (CHO) K1 cells stably co-transfected with the specific human steroid receptor and its respective reporter construct were used (as previously described).
(§2) For human glucocorticoid receptor (GR)-specific activity CHO-GR B4.8 cells containing both recombinant human GR as well as a reporter construct consisting of the mouse mammary tumor virus (MMTV) promotor and the luciferase reporter gene, were used. Compound was incubated alone (in the agonistic setup) or with 50 nM dexamethasone (in the antagonistic setup) overnight. Hereafter, 200 µl medium was removed and 50 µl luciferine substrate solution from the LucLite luminescence kit (Packard, Meriden, USA) was added. […] Percentage maximal antagonistic efficacy was related to the maximal antagonistic efficacy of reference GR antagonist Org 34116. Similar procedures were followed for the other human steroid receptor assays (for more detailed information see Supportive Information) (SI text).
(§3) Similar procedures were followed for the other human steroid receptor assays containing combinations of human progesterone receptor B (PR-B) and MMTV-Luc, human androgen receptor (AR) and MMTV-Luc, human chimeric glucocorticoid-mineralocorticoid receptor (GGM, Trapp et al. (1994), Neuron 13: 1457) and MMTV-Luc, human estrogen receptor alpha (ERα) and rat oxytocin-Luc (45), and human estrogen receptor beta (ERβ) and rat oxytocin-Luc, respectively.

[3] = target: T3, human estrogen receptor alpha (ERα) (Homo sapiens, UniProt P03372); assay: CHO steroid receptor reporter assay, ERα / rat oxytocin-Luc; assay type: cell-based
T3 construct: expressed in transfected cells; host or cells: CHO K1
T3 sequence (P03372 1-595): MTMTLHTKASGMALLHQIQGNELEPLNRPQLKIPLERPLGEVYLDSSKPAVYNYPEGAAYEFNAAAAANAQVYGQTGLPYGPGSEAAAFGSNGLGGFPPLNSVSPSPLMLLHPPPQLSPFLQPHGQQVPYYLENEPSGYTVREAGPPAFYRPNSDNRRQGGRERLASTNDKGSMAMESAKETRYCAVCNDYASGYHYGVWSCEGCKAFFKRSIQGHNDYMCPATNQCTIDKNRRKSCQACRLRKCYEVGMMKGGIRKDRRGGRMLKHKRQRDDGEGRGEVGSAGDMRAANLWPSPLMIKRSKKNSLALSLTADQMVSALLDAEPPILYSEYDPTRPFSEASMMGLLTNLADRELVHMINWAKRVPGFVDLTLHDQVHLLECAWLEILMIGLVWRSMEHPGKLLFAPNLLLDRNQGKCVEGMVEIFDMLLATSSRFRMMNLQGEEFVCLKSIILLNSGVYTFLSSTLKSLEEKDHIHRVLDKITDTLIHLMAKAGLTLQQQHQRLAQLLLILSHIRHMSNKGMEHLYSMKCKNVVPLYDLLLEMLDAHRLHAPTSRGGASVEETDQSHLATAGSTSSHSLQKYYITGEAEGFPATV
Text: as §1, §2, §3

[4] = target: T4, human estrogen receptor beta (ERβ) (Homo sapiens, UniProt Q92731); assay: CHO steroid receptor reporter assay, ERβ / rat oxytocin-Luc; assay type: cell-based; conditions: ERß
T4 construct: expressed in transfected cells; host or cells: CHO K1
T4 sequence (Q92731 whole entry): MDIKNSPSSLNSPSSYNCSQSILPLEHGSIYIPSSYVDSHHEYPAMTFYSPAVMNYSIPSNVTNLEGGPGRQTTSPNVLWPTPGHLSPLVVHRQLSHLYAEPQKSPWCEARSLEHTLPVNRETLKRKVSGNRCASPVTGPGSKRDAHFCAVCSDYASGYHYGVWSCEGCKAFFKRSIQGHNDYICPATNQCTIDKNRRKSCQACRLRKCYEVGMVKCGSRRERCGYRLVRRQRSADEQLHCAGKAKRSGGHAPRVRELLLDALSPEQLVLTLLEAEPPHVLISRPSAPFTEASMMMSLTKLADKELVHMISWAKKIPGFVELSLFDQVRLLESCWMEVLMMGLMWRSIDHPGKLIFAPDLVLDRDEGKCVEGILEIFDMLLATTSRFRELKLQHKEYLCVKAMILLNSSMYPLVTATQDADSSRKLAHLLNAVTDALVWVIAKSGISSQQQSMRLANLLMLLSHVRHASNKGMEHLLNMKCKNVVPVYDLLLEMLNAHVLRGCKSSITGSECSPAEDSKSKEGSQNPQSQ
Text: as §1, §2, §3

[5] = 30 mg/kg, mouse CIA experiment; cited from earlier work

SMILES | Ki [1] [nM] | EC50 ([2]; read-out: EC50 (agonist)) [nM] | IC50 ([2]; read-out: IC50 (antagonist)) [nM] | % agonist potency ([2]; relative to reference compound) [%] | % antagonist potency ([2]; relative to reference compound) [%] | EC50 ([3]; read-out: EC50 (agonist)) [nM] | IC50 ([3]; read-out: IC50 (antagonist)) [nM] | % agonist potency ([3]; relative to reference compound) [%] | % antagonist potency ([3]; relative to reference compound) [%] | EC50 ([4]; read-out: EC50 (agonist)) [nM] | IC50 ([4]; read-out: IC50 (antagonist)) [nM] | % agonist potency ([4]; relative to reference compound) [%] | % antagonist potency ([4]; relative to reference compound) [%] | serum insulin levels [5]
Cc1nnsc1C(=O)N[C@H]1CCN2c3ccc(C#N)cc3[C@@H](C)c3ccccc3[C@@H]2C1 [Org 214007-0] | 2.2 | > 100 | > 1000 | <0.13 | <3.83 | > 100 | > 1000 | <0.01 | <1.86 | > 100 | > 1000 | <0.01 | <0.9 | –
C[C@]12C=CC(=O)C=C1CC[C@@H]1[C@@H]2[C@@H](O)C[C@@]2(C)[C@H]1CC[C@]2(O)C(=O)CO [prednisolone, reference compound] | – | – | – | – | – | – | – | – | – | – | – | – | – | significantly elevated
